Like-named read-outs stand apart in the source and are kept apart here.
Assays:
[1] = system: Staphylococcus aureus SAU.399 (ATCC 43300), Methicillin and Oxacillin Resistant; assay type: cell-based; conditions: ATCC 43300
Method: (§1) Compounds according to Formula I were tested for antimicrobial activity against a panel of organisms. Aerobic organisms, Staphylococcus aureus, Enterococcus faecalis and E. faecium, were tested by broth microdilution according to Clinical and Laboratory Standards Institute (CLSI) document M7-A7 (Clinical and Laboratory Standards Institute. Methods for Dilution Antimicrobial Susceptibility Tests for Bacteria that Grow Aerobically; Approved Standard—Seventh Edition. CLSI document M7-A7 [ISBN 1-56238-587-9]. Clinical and Laboratory Standards Institute, 940 West Valley Road, Suite 1400, Wayne, Pa. 19087-1898 USA, 2006) with modifications as described below. Mueller Hinton Broth (MHBc) was supplemented with 50 mg/L calcium (equivalent to human physiological levels of calcium) and assay plates were incubated 18-20 hours at 37° C. with aeration (200 rpm).
(§2) In all cases the final concentration of dimethyl sulfoxide incubated with cells is less than or equal to 1%. For minimum inhibitory concentration (MIC) calculations, 2-fold dilutions of compounds were added to wells of a microtiter plate containing 5×10^5 bacteria in a final volume of 100 μL of media. Following incubation, (18-20 hours at 37° C. with aeration at 200 rpm) growth was confirmed visually by placing plates over a viewing apparatus (stand with a mirror underneath) and then the optical density (OD600) was measured using a SpectraMax 340PC^384 plate reader. Growth was defined as turbidity that could be detected with the naked eye or achieving minimum OD600of 0.1. MIC values (in μg/mL) were defined as the lowest concentration producing no visible turbidity.

[2] = system: Staphylococcus aureus SAU.278, Daptomycin resistant mutant (D10); assay type: cell-based; conditions: MHBc with 50 mg/L calcium, 18-20 hours at 37° C.
Method: as §1, §2

[3] = system: Staphylococcus aureus SAU.42 (ATCC 29213); assay type: cell-based
Method: as §1, §2

[4] = system: Enterococcus faecalis EFS.201 (ATCC 49452); assay type: cell-based
Method: as §1, §2

[5] = system: Enterococcus faecalis EFS.312, Daptomycin resistant mutant (EFA); assay type: cell-based; conditions: MHBc with 50 mg/L calcium, 18-20 hours at 37° C.
Method: as §1, §2

[6] = system: Enterococcus faecium EFM.14 (ATCC 6569); assay type: cell-based
Method: as §1, §2

[7] = system: Enterococcus faecium EFM.384, Daptomycin resistant mutant (14-A); assay type: cell-based; conditions: MHBc with 50 mg/L calcium, 18-20 hours at 37° C.
Method: as §1, §2

[8] = MHBc with 50 mg/L calcium, 18-20 hours at 37° C.

SMILES: CCCCCCCCC(=O)N[C@@H](Cc1c[nH]c2ccccc12)C(=O)N[C@H](CC(N)=O)C(=O)N[C@@H](CC(=O)O)C(=O)N[C@@H]1C(=O)NCC(=O)N[C@@H](CCCN)C(=O)N[C@@H](CC(=O)O)C(=O)N[C@H](C)C(=O)N[C@@H](CC(=O)O)C(=O)NCC(=O)N[C@H](CO)C(=O)N[C@@H]([C@H](C)CC(=O)O)C(=O)N[C@@H](CC(=O)c2ccccc2N)C(=O)O[C@@H]1C [Compound 1]
- Sa399 MIC [1]: 2 µg/mL
- Sa278 MIC [2]: >32 µg/mL
- Sa42 MIC ([3]; ATCC 29213): 8 µg/mL
- Efs201 MIC ([4]; ATCC 49452): 32 µg/mL
- Efs312 MIC [5]: >32 µg/mL
- Efm14 MIC ([6]; ATCC 6569): 32 µg/mL
- Efm384 MIC [7]: >32 µg/mL

SMILES: CCCCCCCCCCCC(=O)N[C@@H](Cc1c[nH]c2ccccc12)C(=O)N[C@H](CC(N)=O)C(=O)N[C@@H](CC(=O)O)C(=O)N[C@@H]1C(=O)NCC(=O)N[C@@H](CCCN)C(=O)N[C@@H](CC(=O)O)C(=O)N[C@H](C)C(=O)N[C@@H](CC(=O)O)C(=O)NCC(=O)N[C@H](CO)C(=O)N[C@@H]([C@H](C)CC(=O)O)C(=O)N[C@@H](CC(=O)c2ccccc2N)C(=O)O[C@@H]1C [Compound 3]
- Sa399 MIC [1]: 1 µg/mL
- Sa278 MIC [2]: 1 µg/mL
- Sa42 MIC ([3]; ATCC 29213): 0.5 µg/mL
- Efs201 MIC ([4]; ATCC 49452): 0.5 µg/mL
- Efs312 MIC [5]: 32 µg/mL
- Efm14 MIC ([6]; ATCC 6569): 1 µg/mL
- Efm384 MIC [7]: 4 µg/mL

SMILES: CC(C)CCCCCCC(=O)N[C@@H](Cc1c[nH]c2ccccc12)C(=O)N[C@H](CC(N)=O)C(=O)N[C@@H](CC(=O)O)C(=O)N[C@@H]1C(=O)NCC(=O)N[C@@H](CCCN)C(=O)N[C@@H](CC(=O)O)C(=O)N[C@H](C)C(=O)N[C@@H](CC(=O)O)C(=O)NCC(=O)N[C@H](CO)C(=O)N[C@@H]([C@H](C)CC(=O)O)C(=O)N[C@@H](CC(=O)c2ccccc2N)C(=O)O[C@@H]1C [Compound 9]
- Sa399 MIC [1]: 0.5 µg/mL
- Sa278 MIC [2]: 8 µg/mL
- Sa42 MIC ([3]; ATCC 29213): 0.5 µg/mL
- Efs201 MIC ([4]; ATCC 49452): 4 µg/mL
- Efs312 MIC [5]: >32 µg/mL
- Efm14 MIC ([6]; ATCC 6569): 4 µg/mL
- Efm384 MIC [7]: 32 µg/mL

SMILES: CCCCCCCCCC(C)(C)C(=O)N[C@@H](Cc1c[nH]c2ccccc12)C(=O)N[C@H](CC(N)=O)C(=O)N[C@@H](CC(=O)O)C(=O)N[C@@H]1C(=O)NCC(=O)N[C@@H](CCCN)C(=O)N[C@@H](CC(=O)O)C(=O)N[C@H](C)C(=O)N[C@@H](CC(=O)O)C(=O)NCC(=O)N[C@H](CO)C(=O)N[C@@H]([C@H](C)CC(=O)O)C(=O)N[C@@H](CC(=O)c2ccccc2N)C(=O)O[C@@H]1C [Compound 12]
- Sa399 MIC [1]: 2 µg/mL
- Sa278 MIC [2]: 8 µg/mL
- Sa42 MIC ([3]; ATCC 29213): 4 µg/mL
- Efs201 MIC ([4]; ATCC 49452): 16 µg/mL
- Efs312 MIC [5]: 32 µg/mL
- Efm14 MIC ([6]; ATCC 6569): 8 µg/mL
- Efm384 MIC [7]: >32 µg/mL

SMILES: CCCCCCCC(C)C(=O)N[C@@H](Cc1c[nH]c2ccccc12)C(=O)N[C@H](CC(N)=O)C(=O)N[C@@H](CC(=O)O)C(=O)N[C@@H]1C(=O)NCC(=O)N[C@@H](CCCN)C(=O)N[C@@H](CC(=O)O)C(=O)N[C@H](C)C(=O)N[C@@H](CC(=O)O)C(=O)NCC(=O)N[C@H](CO)C(=O)N[C@@H]([C@H](C)CC(=O)O)C(=O)N[C@@H](CC(=O)c2ccccc2N)C(=O)O[C@@H]1C (some centres unmarked) [Compound 13]
- Sa399 MIC [1]: 1 µg/mL
- Sa278 MIC [2]: 32 µg/mL
- Sa42 MIC ([3]; ATCC 29213): 2 µg/mL
- Efs201 MIC ([4]; ATCC 49452): 16 µg/mL
- Efs312 MIC [5]: >32 µg/mL
- Efm14 MIC ([6]; ATCC 6569): 16 µg/mL
- Efm384 MIC [7]: >32 µg/mL

SMILES: CCCCCC1CCC([C@H]2CC[C@H](C(=O)N[C@@H](Cc3c[nH]c4ccccc34)C(=O)N[C@H](CC(N)=O)C(=O)N[C@@H](CC(=O)O)C(=O)N[C@@H]3C(=O)NCC(=O)N[C@@H](CCCN)C(=O)N[C@@H](CC(=O)O)C(=O)N[C@H](C)C(=O)N[C@@H](CC(=O)O)C(=O)NCC(=O)N[C@H](CO)C(=O)N[C@@H]([C@H](C)CC(=O)O)C(=O)N[C@@H](CC(=O)c4ccccc4N)C(=O)O[C@@H]3C)CC2)CC1 (some centres unmarked) [Compound 20]
- Sa399 MIC [1]: 2 µg/mL
- Sa278 MIC [2]: 8 µg/mL
- Sa42 MIC ([3]; ATCC 29213): 0.5 µg/mL
- Efs201 MIC ([4]; ATCC 49452): 0.5 µg/mL
- Efs312 MIC [5]: 4 µg/mL

SMILES: CC(C)C1CCC(CCCC(=O)N[C@@H](Cc2c[nH]c3ccccc23)C(=O)N[C@H](CC(N)=O)C(=O)N[C@@H](CC(=O)O)C(=O)N[C@@H]2C(=O)NCC(=O)N[C@@H](CCCN)C(=O)N[C@@H](CC(=O)O)C(=O)N[C@H](C)C(=O)N[C@@H](CC(=O)O)C(=O)NCC(=O)N[C@H](CO)C(=O)N[C@@H]([C@H](C)CC(=O)O)C(=O)N[C@@H](CC(=O)c3ccccc3N)C(=O)O[C@@H]2C)CC1 (some centres unmarked) [Compound 21]
- Sa399 MIC [1]: 1 µg/mL
- Sa278 MIC [2]: 2 µg/mL
- Sa42 MIC ([3]; ATCC 29213): 0.063 µg/mL
- Efs201 MIC ([4]; ATCC 49452): 0.25 µg/mL
- Efs312 MIC [5]: 32 µg/mL

SMILES: CCCCCc1ccc(C(=O)N[C@@H](Cc2c[nH]c3ccccc23)C(=O)N[C@H](CC(N)=O)C(=O)N[C@@H](CC(=O)O)C(=O)N[C@@H]2C(=O)NCC(=O)N[C@@H](CCCN)C(=O)N[C@@H](CC(=O)O)C(=O)N[C@H](C)C(=O)N[C@@H](CC(=O)O)C(=O)NCC(=O)N[C@H](CO)C(=O)N[C@@H]([C@H](C)CC(=O)O)C(=O)N[C@@H](CC(=O)c3ccccc3N)C(=O)O[C@@H]2C)cc1 [Compound 31]
- Sa399 MIC [1]: 4 µg/mL
- Sa278 MIC [2]: >32 µg/mL
- Sa42 MIC ([3]; ATCC 29213): 4 µg/mL
- Efs201 MIC ([4]; ATCC 49452): 16 µg/mL
- Efs312 MIC [5]: >32 µg/mL
- Efm14 MIC ([6]; ATCC 6569): 16 µg/mL
- Efm384 MIC [7]: >32 µg/mL

SMILES: CCCCCCCCCOc1ccc(C(=O)N[C@@H](Cc2c[nH]c3ccccc23)C(=O)N[C@H](CC(N)=O)C(=O)N[C@@H](CC(=O)O)C(=O)N[C@@H]2C(=O)NCC(=O)N[C@@H](CCCN)C(=O)N[C@@H](CC(=O)O)C(=O)N[C@H](C)C(=O)N[C@@H](CC(=O)O)C(=O)NCC(=O)N[C@H](CO)C(=O)N[C@@H]([C@H](C)CC(=O)O)C(=O)N[C@@H](CC(=O)c3ccccc3N)C(=O)O[C@@H]2C)cc1 [Compound 37]
- C. diff MIC90 (Clostridium difficile): 1 µg/mL
- Sa278 MIC [2]: 0.25 µg/mL
- Sa42 MIC [3, 8]: 0.25 µg/mL
- Efs201 MIC [4, 8]: 0.5 µg/mL
- Efs312 MIC [5]: 2 µg/mL
- Efm14 MIC [6, 8]: 0.5 µg/mL
- Efm384 MIC [7]: 2 µg/mL

SMILES: CC(C)Sc1ccc(-c2csc(C(=O)N[C@@H](Cc3c[nH]c4ccccc34)C(=O)N[C@H](CC(N)=O)C(=O)N[C@@H](CC(=O)O)C(=O)N[C@@H]3C(=O)NCC(=O)N[C@@H](CCCN)C(=O)N[C@@H](CC(=O)O)C(=O)N[C@H](C)C(=O)N[C@@H](CC(=O)O)C(=O)NCC(=O)N[C@H](CO)C(=O)N[C@@H]([C@H](C)CC(=O)O)C(=O)N[C@@H](CC(=O)c4ccccc4N)C(=O)O[C@@H]3C)c2)cc1 [Compound 55]
- Sa399 MIC [1]: 0.25 µg/mL
- Sa278 MIC [2]: 4 µg/mL
- Sa42 MIC ([3]; ATCC 29213): 0.5 µg/mL
- Efs201 MIC ([4]; ATCC 49452): 2 µg/mL
- Efs312 MIC [5]: >32 µg/mL
- Efm14 MIC ([6]; ATCC 6569): 2 µg/mL
- Efm384 MIC [7]: 8 µg/mL

SMILES: CCCSc1ccc(-c2csc(C(=O)N[C@@H](Cc3c[nH]c4ccccc34)C(=O)N[C@H](CC(N)=O)C(=O)N[C@@H](CC(=O)O)C(=O)N[C@@H]3C(=O)NCC(=O)N[C@@H](CCCN)C(=O)N[C@@H](CC(=O)O)C(=O)N[C@H](C)C(=O)N[C@@H](CC(=O)O)C(=O)NCC(=O)N[C@H](CO)C(=O)N[C@@H]([C@H](C)CC(=O)O)C(=O)N[C@@H](CC(=O)c4ccccc4N)C(=O)O[C@@H]3C)c2)cc1 [Compound 56]
- Sa399 MIC [1]: 2 µg/mL
- Sa278 MIC [2]: 8 µg/mL
- Sa42 MIC ([3]; ATCC 29213): 2 µg/mL
- Efs201 MIC ([4]; ATCC 49452): 8 µg/mL
- Efs312 MIC [5]: >32 µg/mL
- Efm14 MIC ([6]; ATCC 6569): 8 µg/mL
- Efm384 MIC [7]: 32 µg/mL

SMILES: C[C@H](CC(=O)O)[C@@H]1NC(=O)[C@@H](CO)NC(=O)CNC(=O)[C@H](CC(=O)O)NC(=O)[C@@H](C)NC(=O)[C@H](CC(=O)O)NC(=O)[C@H](CCCN)NC(=O)CNC(=O)[C@@H](NC(=O)[C@H](CC(=O)O)NC(=O)[C@@H](CC(N)=O)NC(=O)[C@H](Cc2c[nH]c3ccccc23)NC(=O)c2ccc(-c3ccc(Cl)cc3)cc2)[C@@H](C)OC(=O)[C@H](CC(=O)c2ccccc2N)NC1=O [Compound 68]
- C. diff MIC90 (Clostridium difficile): 16 µg/mL
- Sa278 MIC [2]: 32 µg/mL
- Sa42 MIC ([3]; ATCC 29213): 4 µg/mL
- Efs201 MIC ([4]; ATCC 49452): 16 µg/mL
- Efs312 MIC [5]: >32 µg/mL
- Efm14 MIC ([6]; ATCC 6569): 16 µg/mL
- Efm384 MIC [7]: >32 µg/mL

— patent publication US20150337013A1, “NOVEL ANTIBACTERIAL AGENTS FOR THE TREATMENT OF GRAM POSITIVE INFECTIONS” (priority 2008, published 2015)
